Data taken from paper PMC6028563, “Probing Substituents in the 1- and 3-Position: Tetrahydropyrazino-Annelated Water-Soluble Xanthine Derivatives as Multi-Target Drugs With Potent Adenosine Receptor Antagonistic Activity” (Frontiers in Chemistry, 2018).

Assays:
recombinant human MAO-B = target: T1, recombinant human MAO-B (Homo sapiens, UniProt P27338); experiment: Monoamine oxidase assay (Amplex Red), MAO-B; assay type: biochemical; settings: for inhibition at 10 µM: at 10,000 nM (10 μM), read-out: % inhibition at indicated concentration, Human MAO-B; for IC50: read-out: IC50 ± SEM, Human MAO-B
T1 construct: purchased Sigma-Aldrich M7441; host or cells: baculovirus-infected insect cells
T1 sequence (P27338 1-520): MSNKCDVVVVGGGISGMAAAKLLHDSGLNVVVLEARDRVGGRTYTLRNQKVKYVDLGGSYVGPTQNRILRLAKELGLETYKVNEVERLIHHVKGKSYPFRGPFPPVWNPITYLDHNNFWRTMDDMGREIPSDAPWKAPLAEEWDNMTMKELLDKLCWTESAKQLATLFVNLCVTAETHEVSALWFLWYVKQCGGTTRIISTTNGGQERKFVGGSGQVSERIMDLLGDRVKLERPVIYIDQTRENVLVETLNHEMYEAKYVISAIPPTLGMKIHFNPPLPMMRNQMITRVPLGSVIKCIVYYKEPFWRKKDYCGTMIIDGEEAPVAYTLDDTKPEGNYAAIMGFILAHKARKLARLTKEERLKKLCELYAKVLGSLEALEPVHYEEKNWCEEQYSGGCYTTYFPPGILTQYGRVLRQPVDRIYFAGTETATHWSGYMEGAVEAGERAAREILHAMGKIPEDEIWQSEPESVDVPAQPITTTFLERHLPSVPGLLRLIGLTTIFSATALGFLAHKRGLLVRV
Method: (§1) The determination of MAO-A and MAO-B inhibition was performed using commercially available recombinant human MAO-A and MAO-B enzymes expressed in baculovirus-infected insects sells (Sigma-Aldrich, M7316 and M7441) applying the commercially available Amplex® Red monoamine oxidase assay kit (Invitrogen A12214). The assays were performed as previously described. The determination of rat MAO-B inhibition was performed using mitochondrial-enriched fractions from male Sprague Dawley rat livers. […]

human A3 AR = target: T2, human A3 AR (Homo sapiens, UniProt P0DMS8); experiment: Radioligand binding assay at human A3 AR vs. [^3H]PSB-11; settings: for Ki: CHO cell membranes, n = 2 (n = 3 where marked a), read-out: Ki ± SEM, A3 vs. [^3H]PSB-11; for inhibition at 10 µM: at 10,000 nM, read-out: % inhibition of radioligand binding at indicated concentration, A3 vs. [^3H]PSB-11
T2 construct: expressed in transfected cells; host or cells: CHO cells
T2 sequence (P0DMS8 1-318): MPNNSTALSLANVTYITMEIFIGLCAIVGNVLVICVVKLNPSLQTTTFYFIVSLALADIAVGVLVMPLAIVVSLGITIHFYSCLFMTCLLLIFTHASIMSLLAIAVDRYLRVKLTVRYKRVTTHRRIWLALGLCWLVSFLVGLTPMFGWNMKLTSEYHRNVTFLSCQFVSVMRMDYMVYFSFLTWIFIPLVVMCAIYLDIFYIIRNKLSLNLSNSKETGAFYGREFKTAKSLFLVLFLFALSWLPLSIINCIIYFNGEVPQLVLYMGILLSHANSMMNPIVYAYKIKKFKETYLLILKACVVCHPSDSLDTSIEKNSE
Method: (§2) Membrane preparations and radioligand binding assays at rat A1 (rat brain cortex) and rat A2A ARs (rat brain striatum) were performed as previously described (Ozola et al., [2003]; Alnouri et al., [2015]). For assays at human A1, A2A, A2B, and A3 ARs, CHO cell membranes expressing one of the human AR subtypes were used as previously reported (Klotz et al., [1998]; Alnouri et al., [2015]; De Filippo et al., [2016]).
(§3) The synthesized tetrahydropyrazino[2,1-f ]purinediones 13–20 were evaluated in radioligand binding assays for their affinity to A1 ARs of rat brain cortical membrane and to A2A ARs of rat brain striatal membrane preparations. Selected compounds were further investigated for their affinity to human A1 and A2A ARs recombinantly expressed in Chinese hamster ovary (CHO) cells. All compounds were additionally investigated for their affinity to human A2B and A3 ARs recombinantly expressed in CHO cells to determine their AR subtype selectivity. […] It is well known that all xanthine derivatives lacking a ribose moiety, including tricyclic compounds, can only block ARs, but never act as AR agonists; therefore, additional functional studies were not required. […] Potent MAO-B inhibitors were additionally investigated for inhibition of human MAO-A to assess their selectivity. Results are presented in Tables 1–6, and data of standard ligands are included for comparison.

human A1 AR = target: T3, human A1 AR (Homo sapiens, UniProt P30542); experiment: Radioligand binding assay at human A1 AR vs. [^3H]CCPA; settings: human (h); CHO cell membranes; n = 3
T3 construct: expressed in transfected cells; host or cells: CHO cells
T3 sequence (P30542 1-326): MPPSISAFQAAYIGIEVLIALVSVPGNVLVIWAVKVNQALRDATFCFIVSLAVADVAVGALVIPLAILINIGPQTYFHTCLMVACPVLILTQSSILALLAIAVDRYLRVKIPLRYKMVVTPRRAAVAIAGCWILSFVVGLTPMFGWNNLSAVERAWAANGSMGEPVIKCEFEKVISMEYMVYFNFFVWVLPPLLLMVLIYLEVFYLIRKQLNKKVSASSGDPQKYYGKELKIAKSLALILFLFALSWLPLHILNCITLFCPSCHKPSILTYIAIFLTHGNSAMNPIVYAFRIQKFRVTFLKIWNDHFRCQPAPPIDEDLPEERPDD
Method: as §2, §3

human A2B AR = target: T4, human A2B AR (Homo sapiens, UniProt P29275); experiment: Radioligand binding assay at human A2B AR vs. [^3H]PSB-603; settings: for Ki: CHO cell membranes, n = 2 (n = 3 where marked a), read-out: Ki ± SEM, A2B vs. [^3H]PSB-603; for inhibition at 1 µM: at 1,000 nM, read-out: % inhibition of radioligand binding at indicated concentration, A2B vs. [^3H]PSB-603
T4 construct: expressed in transfected cells; host or cells: CHO cells
T4 sequence (P29275 1-332): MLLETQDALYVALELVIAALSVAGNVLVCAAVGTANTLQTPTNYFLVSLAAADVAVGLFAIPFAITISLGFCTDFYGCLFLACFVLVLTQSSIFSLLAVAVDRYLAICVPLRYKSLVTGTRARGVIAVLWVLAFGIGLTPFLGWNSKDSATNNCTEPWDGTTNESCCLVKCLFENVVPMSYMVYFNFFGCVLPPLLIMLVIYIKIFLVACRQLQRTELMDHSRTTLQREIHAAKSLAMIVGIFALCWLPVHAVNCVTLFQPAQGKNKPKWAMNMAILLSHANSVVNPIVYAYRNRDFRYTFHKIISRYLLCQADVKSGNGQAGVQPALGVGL
Method: as §2, §3

rat A1 AR = target: T5, rat A1 AR (Rattus norvegicus, UniProt P25099); experiment: Radioligand binding assay at rat A1 AR (rat brain cortex) vs. [^3H]CCPA; settings: rat (r); for Ki: rat brain cortex, n = 3
T5 construct: A1 ARs of rat brain cortical membrane; from tissue; host or cells: rat brain cortex membranes
T5 sequence (P25099 1-326): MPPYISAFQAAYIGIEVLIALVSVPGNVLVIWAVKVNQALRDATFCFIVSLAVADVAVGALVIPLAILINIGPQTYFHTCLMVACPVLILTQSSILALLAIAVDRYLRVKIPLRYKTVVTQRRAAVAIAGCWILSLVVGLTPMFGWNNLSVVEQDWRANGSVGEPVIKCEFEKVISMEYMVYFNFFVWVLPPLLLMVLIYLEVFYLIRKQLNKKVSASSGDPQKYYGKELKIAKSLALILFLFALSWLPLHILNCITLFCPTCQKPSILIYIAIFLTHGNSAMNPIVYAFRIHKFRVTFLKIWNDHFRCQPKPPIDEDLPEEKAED
Method: as §2, §3

rat A2A AR = target: T6, rat A2A AR (Rattus norvegicus, UniProt P30543); experiment: Radioligand binding assay at rat A2A AR (rat brain striatum) vs. [^3H]MSX-2; settings: rat (r); for Ki: rat brain striatum, n = 3, read-out: Ki ± SEM, A2A vs. [^3H]MSX-2; for % inhibition of radioligand binding at indicated concentration, A2A vs. [^3H]MSX-2: at 1,000 nM
T6 construct: A2A ARs of rat brain striatal membrane preparations; from tissue; host or cells: rat brain striatum membranes
Method: as §2, §3

recombinant human MAO-A = target: T7, recombinant human MAO-A (Homo sapiens, UniProt P21397); experiment: Monoamine oxidase assay (Amplex Red), MAO-A; assay type: biochemical; settings: for inhibition at 10 µM: at 10,000 nM, read-out: % inhibition at indicated concentration, Human MAO-A
T7 construct: purchased Sigma-Aldrich M7316; host or cells: baculovirus-infected insect cells
T7 sequence (P21397 1-527): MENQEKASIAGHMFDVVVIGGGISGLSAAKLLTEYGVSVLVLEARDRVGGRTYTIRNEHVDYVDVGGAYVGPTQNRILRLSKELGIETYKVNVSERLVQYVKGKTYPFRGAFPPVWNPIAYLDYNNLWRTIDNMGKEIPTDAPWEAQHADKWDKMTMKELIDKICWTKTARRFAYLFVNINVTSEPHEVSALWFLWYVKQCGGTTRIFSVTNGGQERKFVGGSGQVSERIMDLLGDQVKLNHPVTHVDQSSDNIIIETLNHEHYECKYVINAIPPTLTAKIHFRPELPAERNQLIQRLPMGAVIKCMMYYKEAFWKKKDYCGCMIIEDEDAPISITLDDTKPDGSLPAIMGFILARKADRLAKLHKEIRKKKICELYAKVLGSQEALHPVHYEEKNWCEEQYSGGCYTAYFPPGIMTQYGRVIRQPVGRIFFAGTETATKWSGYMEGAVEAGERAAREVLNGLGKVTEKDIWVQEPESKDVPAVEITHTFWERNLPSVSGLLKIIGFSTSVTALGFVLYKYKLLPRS
Method: as §1

T6 sequence (P30543 whole entry): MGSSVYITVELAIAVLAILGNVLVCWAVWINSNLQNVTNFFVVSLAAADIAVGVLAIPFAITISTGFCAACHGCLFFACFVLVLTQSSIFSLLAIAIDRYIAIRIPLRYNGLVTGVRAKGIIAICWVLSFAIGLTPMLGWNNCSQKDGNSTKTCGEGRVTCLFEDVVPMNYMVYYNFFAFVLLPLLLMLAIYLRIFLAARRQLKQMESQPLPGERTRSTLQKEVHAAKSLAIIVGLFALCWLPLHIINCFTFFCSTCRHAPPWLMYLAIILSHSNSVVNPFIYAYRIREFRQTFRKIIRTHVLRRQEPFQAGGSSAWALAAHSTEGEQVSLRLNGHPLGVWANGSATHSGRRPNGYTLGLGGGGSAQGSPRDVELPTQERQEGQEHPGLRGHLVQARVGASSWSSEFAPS

| SMILES | inhibition at 10 µM (recombinant human MAO-B) [%] | IC50 (recombinant human MAO-B; n = 3) [µM] | Ki (human A3 AR) [µM] | Ki (human A1 AR) [µM] | Ki (human A2B AR) [µM] | inhibition at 1 µM (human A2B AR) [%] | Ki (rat A1 AR) [µM] | Ki (rat A2A AR) [µM] | inhibition at 10 µM (human A3 AR) [%] | % inhibition of radioligand binding at indicated concentration, A2A vs. [^3H]MSX-2 (rat A2A AR) [%] | inhibition at 10 µM (recombinant human MAO-A) [%] | IC50 ± SEM, Human MAO-B (recombinant human MAO-B; n = 3) | IC50 (recombinant human MAO-A; n = 3, read-out: IC50 ± SEM, Human MAO-A) [µM] | inhibition at 1.5 µM (rat A1 AR; read-out: % inhibition of radioligand binding at indicated concentration, A1 vs. [^3H]CCPA, at 1,500 nM) [%] |
| --- | --- | --- | --- | --- | --- | --- | --- | --- | --- | --- | --- | --- | --- | --- |
| CCn1c(=O)c2c(nc3n2CCN(Cc2cccc(F)c2)C3)n(CC)c1=O [Compound 15b, 1,3-diethyl-8-(3-fluorobenzyl)-6,7,8,9-tetrahydropyrazino[2,1-f]purine-2,4(1H,3H)-dione] | 49 | ≥ 10 | 7.02 | 0.207 ± 0.011 | > 1 | 9 | 0.0472 ± 0.0199 | 1.58 | – | – | – | – | – | – |
| CCn1c(=O)c2c(nc3n2CCN(Cc2ccc(F)cc2)C3)n(C)c1=O [Compound 14h, 3-ethyl-8-(4-fluorobenzyl)-1-methyl-6,7,8,9-tetrahydropyrazino[2,1-f]purine-2,4(1H,3H)-dione] | 24 | > 10 | > 10 | 5.12 | > 1 | 9 | 0.164 ± 0.028 | > 1 | 37 | 7 | – | – | – | – |
| CCn1c(=O)c2c(nc3n2CCN(Cc2c(Cl)cccc2Cl)C3)n(C)c1=O [Compound 14k, 8-(2,6-dichlorobenzyl)-3-ethyl-1-methyl-6,7,8,9-tetrahydropyrazino[2,1-f]purine-2,4(1H,3H)-dione] | 43 | > 10 | > 10 | 0.197 ± 0.005 | > 1 | 8 | 0.142 ± 0.032 | 1.1 | 17 | – | – | – | – | – |
| CCn1c(=O)c2c(nc3n2CCN(Cc2ccccc2F)C3)n(CC)c1=O [Compound 15a, 1,3-diethyl-8-(2-fluorobenzyl)-6,7,8,9-tetrahydropyrazino[2,1-f]purine-2,4(1H,3H)-dione] | 22 | > 10 | 7.82 | 0.156 ± 0.005 | > 1 | 12 | 0.032 ± 0.0009 | 2 | – | – | – | – | – | – |
| CCn1c(=O)c2c(nc3n2CCN(Cc2ccc(Cl)c(C(F)(F)F)c2)C3)n(CC)c1=O [Compound 15p, 8-(4-chloro-3-(trifluoromethyl)benzyl)-1,3-diethyl-6,7,8,9-tetrahydropyrazino[2,1-f]purine-2,4(1H,3H)-dione] | 67 | – | 7.18 | 0.129 ± 0.022 | > 1 | 32 | 0.588 ± 0.028 | > 1 | – | 40 | 6 | – | – | – |
| Cn1c(=O)[nH]c(=O)c2c1nc1n2CCN(CCc2ccc(Cl)c(Cl)c2)C1 [Compound 13g, 8-(3,4-dichlorophenethyl)-1-methyl-6,7,8,9-tetrahydropyrazino[2,1-f]purine-2,4(1H,3H)-dione] | – | 0.864 ± 0.064 | > 10 | – | > 1 | 1 | > 1.5 | > 1 | 41 | 10 | 12 | submicromolar range | > 10 | 3 |
